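Briefly, cells in 96-well plates were exposed to five compound concentrations for 48 h, and endpoints were estimated by linear interpolation. Here, GI50 denotes the concentration required for 50% inhibition of growth. At the TGI there is no net growth.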
Legend:
Assay in all cases: DTP human tumour cell line panel, 48 h
A498 renal = test system: A498 renal
BT-549 breast = test system: BT-549 breast
COLO 205 colon = test system: COLO 205 colon
HCT-15 colon = test system: HCT-15 colon
HT29 colon = test system: HT29 colon
MDA-MB-435 = test system: MDA-MB-435
MOLT-4 leukemia = test system: MOLT-4 leukemia
SK-MEL-2 melanoma = test system: SK-MEL-2 melanoma
UACC-62 melanoma = test system: UACC-62 melanoma
RPMI-8226 leukemia = test system: RPMI-8226 leukemia

SMILES | TGI (A498 renal) [µM] | TGI (BT-549 breast) [µM] | TGI (COLO 205 colon) [µM] | TGI (HCT-15 colon) [µM] | TGI (HT29 colon) [µM] | TGI (MDA-MB-435) [µM] | TGI (MOLT-4 leukemia) [µM] | TGI (SK-MEL-2 melanoma) [µM] | TGI (UACC-62 melanoma) [µM] | TGI (RPMI-8226 leukemia) [µM] | GI50 (A498 renal) [µM] | GI50 (BT-549 breast) [µM] | GI50 (HCT-15 colon) [µM] | GI50 (HT29 colon) [µM] | GI50 (MDA-MB-435) [µM] | GI50 (MOLT-4 leukemia) [µM] | GI50 (SK-MEL-2 melanoma) [µM] | GI50 (UACC-62 melanoma) [µM] | GI50 (COLO 205 colon) [µM] | GI50 (RPMI-8226 leukemia) [µM]
Cn1c(=O)c2[nH]c(N/N=N/c3nncs3)nc2n(C)c1=O | > 100 | > 100 | > 100 | > 100 | > 100 | > 100 | > 100 | > 100 | > 100 |  |  |  |  |  |  |  |  |  |  | 
C[C@H](c1ccccc1)N1C(=O)[C@@H](O)[C@H]1[C@H](CO)OCc1ccccc1 | > 100 |  | > 100 | > 100 | > 100 | > 100 | > 100 | > 100 | > 100 | > 100 |  |  |  |  |  |  |  |  |  | 
COC(=O)C1(NC(=O)C(CC(=O)OCc2ccccc2)NC(=O)OCc2ccccc2)CCCCCC1 (stereo not drawn) |  | 61.5 | 47.3 | > 100 | 50.7 | 74.4 | > 100 |  | 34.3 | 21.9 |  |  |  |  |  |  |  |  |  | 
C[C@@]1(O)C2CC3CC1(c1ccccc1)CC(/C3=N/O)/C2=N\O (stereo partly drawn) | > 100 |  | > 100 | > 100 | > 100 | > 100 | > 100 | > 100 | > 100 |  |  |  |  |  |  |  |  |  |  | 
NC(=O)Nc1c(Cl)cc(S(N)(=O)=O)cc1Cl |  | > 100 | > 100 | > 100 | > 100 | > 100 | > 100 | > 100 | > 100 | > 100 |  |  |  |  |  |  |  |  |  | 
CN1CCC(CNc2cc(C3(C(=O)Nc4cc(C(=O)Nc5ccc(Cl)c(C(F)(F)F)c5)ccc4F)CC3)ncn2)CC1 | 7.87 | 9.89 |  | 4.19 | 5.09 | 4.04 | 6.09 | 4.02 |  |  | 2.52 | 3.01 | 1.6 | 1.73 | 1.84 | 2.03 | 1.9 |  |  | 
O=C(Nc1ccccc1)N(C1=NCC(CI)S1)c1ccc(F)c(F)c1 (stereo not drawn) | > 100 |  | > 100 | > 100 | > 100 |  | 61.4 | 60.5 |  | > 100 |  |  |  |  |  |  |  |  |  | 
CCn1nc(C)c2c1C(=O)NCC(=O)N2 | > 100 | > 100 | > 100 | > 100 | > 100 | > 100 |  |  | > 100 |  |  |  |  |  |  |  |  |  |  | 
Cc1ccc(S(=O)(=O)NC(=O)Nc2nnc(S(N)(=O)=O)s2)cc1 | > 100 |  | > 100 | > 100 | > 100 | > 100 | > 100 | > 100 | > 100 | > 100 |  |  |  |  |  |  |  |  |  | 
C=CCC1(C#N)C(=S)NC2=C(C(=O)CC(C)(C)C2)C1c1ccccc1 (stereo not drawn) |  | > 100 | > 100 | > 100 | > 100 | > 100 | > 100 | > 100 |  | > 100 |  |  |  |  |  |  |  |  |  | 
CNC(C)(C)Cc1ccc(Cl)cc1 | > 100 |  | > 100 |  | > 100 |  | > 100 | > 100 | > 100 | > 100 |  |  |  |  |  |  |  |  |  | 
O=C(/C=C(/C=C/c1ccc2[nH]ccc2c1)OB(F)F)/C=C/c1ccc2[nH]ccc2c1 | 6.71 |  |  | 4.43 | > 100 |  | > 100 | 86.2 | 5.02 |  | 2.61 |  | 0.653 | 1.47 |  | 2.06 | 4.6 | 1.85 |  | 
COC1CC(N)(c2ccccc2)C(O)C(C)O1 (stereo not drawn) | > 100 | > 100 | > 100 | > 100 |  | > 100 | > 100 | > 100 | > 100 | > 100 |  |  |  |  |  |  |  |  |  | 
Cc1ccc2nc(SCC(=O)N=Nc3c(O)[nH]c4ccccc34)n(-c3ccccc3)c(=O)c2c1 | 28.1 |  | 33 | 40.5 | 33.5 | 33.7 | 33.2 | 13.2 | 30.6 | 35.7 |  |  |  |  |  |  |  |  |  | 
c1ncn(C23C4C5C6C4C2C6C53)n1 (stereo not drawn) | > 100 |  | > 100 | > 100 | > 100 | > 100 | > 100 | > 100 |  | > 100 |  |  |  |  |  |  |  |  |  | 
O=S1(=O)c2ccccc2Oc2ccc(C(/C=N/O)=N/O)cc21 |  |  | > 100 | > 100 | > 100 | 52.4 | > 100 | 70.7 | > 100 | 53.5 |  |  |  |  |  |  |  |  |  | 
Cc1cc([NH-])c([NH-])cc1C.[Cl][Pt+2][Cl] | > 87.6 |  | 34.9 | 32.3 | 40 |  | 41.6 |  | 27.3 | 60.2 | 33.4 |  | 10.9 | 16.6 |  | 5.07 |  | 8.88 | 14.8 | 9.49
[N-]=[N+]=Nc1c(Cc2ccccc2)c(Cl)nc2ccccc12 | 65.3 |  | 35.2 | > 100 | > 100 | 37.2 | > 100 | 33.4 | 68.8 | 87.3 |  |  |  |  |  |  |  |  |  | 
CCCCCOc1ccc(C=Nc2ccc(CCc3ccc(N=Cc4ccc(OCCCCC)cc4)cc3)cc2)cc1 | > 100 |  | > 100 | > 100 | > 100 |  | > 100 | > 100 | > 100 | > 100 |  |  |  |  |  |  |  |  |  | 
CSc1ncc2c(n1)C(C#N)C1Sc3ccccc3N1C2=O (stereo not drawn) | > 100 | > 100 | > 100 | > 100 | > 100 | > 100 | > 100 |  |  | > 100 |  |  |  |  |  |  |  |  |  | 
CC(N=NNc1ccc(-c2nc3ccccc3[nH]2)cc1)C(=O)O (stereo not drawn) | > 100 | 57.6 | > 100 | 61.6 | > 100 | > 100 | > 100 | > 100 |  | > 100 |  |  |  |  |  |  |  |  |  | 
C#CCNC(CSSCC(N)C(=O)O)C(=O)O (stereo not drawn) | > 100 |  | > 100 | > 100 | > 100 | > 100 | > 100 | > 100 | > 100 | > 100 |  |  |  |  |  |  |  |  |  | 

Reference: PubChem BioAssay (NCI)
